From ChEMBL document CHEMBL3352787, “Lipid-lowering effects of farnesylquinone and related analogues from the marine-derived Streptomyces nitrosporeus” (Bioorg Med Chem Lett, 2014)
Activity calls are given as the source filed them. The rule behind the calls is not given here.

Legend:
HepG2 [1] = experiment: Lipid-lowering effect in human HepG2 cells assessed as reduction in oleic acid-induced lipid accumulation at 1 uM after 6 hrs by oil-red O staining based spectrophotometry; type: functional, cell-based
HepG2 [2] = experiment: Lipid-lowering effect in human HepG2 cells assessed as reduction in oleic acid-induced total cholesterol accumulation at 10 uM after 24 hrs by oil-red O staining based spectrophotometry; type: functional, cell-based
HepG2 [3] = experiment: Lipid-lowering effect in human HepG2 cells assessed as reduction in oleic acid-induced triglyceride accumulation at 10 uM after 24 hrs by oil-red O staining based spectrophotometry; type: functional, cell-based
HepG2 [4] = experiment: Effect on FAS protein expression in human HepG2 cells at 1 to 10 uM by Western blotting method; type: functional, cell-based
HepG2 [5] = experiment: Increase in MCD1 gene expression in human HepG2 cells at 1 uM by quantitative real time PCR method; type: functional, cell-based
HepG2 [6] = experiment: Lipid-lowering effect in human HepG2 cells assessed as reduction in oleic acid-induced triglyceride accumulation at 10 uM in presence of 10 uM PPARalpha antagonist MK886 by oil-red O staining based spectrophotometry; type: functional, cell-based
HepG2 [7] = experiment: Increase in CPT1 gene expression in human HepG2 cells at 1 uM by quantitative real time PCR method; type: functional, cell-based
HepG2 [8] = experiment: Lipid-lowering effect in human HepG2 cells assessed as reduction in oleic acid-induced total cholesterol accumulation at 10 uM in presence of 10 uM PPARalpha antagonist MK886 by oil-red O staining based spectrophotometry; type: functional, cell-based
HepG2 [9] = experiment: Increase in PDK4 gene expression in human HepG2 cells at 1 uM by quantitative real time PCR method; type: functional, cell-based
HepG2 [10] = experiment: Inhibition of ACC gene expression in human HepG2 cells at 1 uM by quantitative real time PCR method; type: functional, cell-based
HepG2 [11] = experiment: Increase in ACOX1 gene expression in human HepG2 cells at 1 uM by quantitative real time PCR method; type: functional, cell-based
[12] = molecular target: T1, Peroxisome proliferator-activated receptor alpha (Homo sapiens) (UniProt Q07869); experiment: Activation of PPARalpha transactivation in human HepG2 cells assessed as increase in transcriptional activity at 0.1 to 10 uM by luciferase reporter gene assay; type: cell-based
T1 sequence (whole entry): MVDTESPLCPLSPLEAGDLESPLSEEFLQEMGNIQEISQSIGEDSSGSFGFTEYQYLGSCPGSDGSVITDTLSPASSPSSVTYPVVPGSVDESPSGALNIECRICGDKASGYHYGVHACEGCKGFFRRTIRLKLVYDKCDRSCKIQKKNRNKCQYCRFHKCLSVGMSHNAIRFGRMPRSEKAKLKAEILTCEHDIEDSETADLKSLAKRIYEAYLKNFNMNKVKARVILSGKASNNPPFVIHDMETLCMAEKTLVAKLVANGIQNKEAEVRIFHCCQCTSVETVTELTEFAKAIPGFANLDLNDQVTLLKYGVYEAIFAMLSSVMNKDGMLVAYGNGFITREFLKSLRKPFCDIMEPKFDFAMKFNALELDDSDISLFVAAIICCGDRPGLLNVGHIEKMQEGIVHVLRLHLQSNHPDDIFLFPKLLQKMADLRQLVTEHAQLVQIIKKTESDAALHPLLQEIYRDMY

HepG2 [13] = experiment: Increase in PGC-1alpha protein expression in human HepG2 cells at 1 to 10 uM by Western blotting method; type: functional, cell-based
HepG2 [14] = experiment: Increase in CPT1 protein expression in human HepG2 cells at 1 to 10 uM by Western blotting method; type: functional, cell-based
HepG2 [15] = experiment: Inhibition of HMGCR gene expression in human HepG2 cells at 1 uM by quantitative real time PCR method; type: functional, cell-based
HepG2 [16] = experiment: Increase in PPARalpha gene expression in human HepG2 cells at 1 uM by quantitative real time PCR method; type: functional, cell-based
HepG2 [17] = experiment: Inhibition of FAS gene expression in human HepG2 cells at 1 uM by quantitative real time PCR method; type: functional, cell-based
HepG2 [18] = experiment: Increase in CYP7A1 gene expression in human HepG2 cells at 1 uM by quantitative real time PCR method; type: functional, cell-based
HepG2 [19] = experiment: Increase in PPARalpha protein expression in human HepG2 cells at 1 to 10 uM by Western blotting method; type: functional, cell-based
HepG2 [20] = experiment: Lipid-lowering effect in human HepG2 cells assessed as reduction in oleic acid-induced triglyceride accumulation at 1 and 10 uM after 24 hrs by oil-red O staining based spectrophotometry; type: functional, cell-based
HepG2 [21] = experiment: Lipid-lowering effect in human HepG2 cells assessed as reduction in oleic acid-induced neutral lipid accumulation at 1 and 10 uM after 24 hrs by oil-red O staining based spectrophotometry; type: functional, cell-based
HepG2 [22] = experiment: Lipid-lowering effect in human HepG2 cells assessed as reduction in oleic acid-induced total cholesterol accumulation at 1 and 10 uM after 24 hrs by oil-red O staining based spectrophotometry; type: functional, cell-based

## COC(=O)CC/C=C/c1ccccc1CO
HepG2 [1]
  inhibition: inactive

## CC(C)=CCC/C(C)=C/CC/C(C)=C/Cc1cc(O)c(C)cc1O
HepG2 [1]
  inhibition: inactive

## O=C(O)CCCCc1ccccc1CO
HepG2 [1]
  inhibition: inactive

## O=C(O)/C=C/C=C/c1ccccc1CO
HepG2 [1]
  inhibition: inactive

## O=C(O)C[C@H](O)CCc1ccccc1CO
HepG2 [1]
  inhibition: inactive

## O=C(O)CCCCC[C@H](O)c1ccccc1CO
HepG2 [1]
  inhibition: Active

## CC[C@H](C)C(=O)O[C@H]1C[C@@H](C)C=C2C=C[C@H](C)[C@H](CC[C@@H]3C[C@@H](O)CC(=O)O3)[C@H]21
HepG2 [2]
  inhibition: Active
HepG2 [3]
  inhibition: Active
HepG2 [1]
  inhibition: Active

## O=C(O)CC/C=C/c1ccccc1CO
HepG2 [1]
  inhibition: inactive

## O=C(O)CCCC(=O)c1ccccc1CO
HepG2 [1]
  inhibition: inactive

## CC(C)=CCC/C(C)=C/CC/C(C)=C/C[C@@]12O[C@@H]1[C@H](O)C(C)=CC2=O
HepG2 [1]
  inhibition: inactive

## CC(C)=CCC/C(C)=C/CC/C(C)=C/CC1=CC(=O)C(C)=CC1=O
HepG2 [4]
  Activity: inactive
HepG2 [5]
  Activity: Active
HepG2 [6]
  inhibition: inactive
HepG2 [7]
  Activity: Active
HepG2 [8]
  inhibition: inactive
HepG2 [9]
  Activity: Active
HepG2 [10]
  inhibition: inactive
HepG2 [11]
  Activity: Active
[12]
  Activity: Dose-dependent effect
HepG2 [13]
  Activity: Active
HepG2 [14]
  Activity: Active
HepG2 [15]
  inhibition: inactive
HepG2 [16]
  Activity: Active
HepG2 [17]
  inhibition: inactive
HepG2 [18]
  Activity: Active
HepG2 [19]
  Activity: Active
HepG2 [1]
  inhibition: Active
HepG2 [20]
  inhibition: Dose-dependent effect
HepG2 [21]
  inhibition: Dose-dependent effect
HepG2 [22]
  inhibition: Dose-dependent effect
